Experimental findings from US9877998B2, “Uses of hypoxia-inducible factor inhibitors” (OncoImmune, Inc., priority 2009, dated 2018) are described below.

In test [1] the test system is lymphoma CSC (c-Kit+Sca-1+ TGB lymphoma cells). Briefly: Colony formation (CFU) assay of TGB lymphoma cells in 1% methylcellulose medium. Format: cell-based, mouse. As to conditions: for effect on lymphoma CFU (colony number): cultured lymphoma cells treated 24 hours with pharmacologically effective doses (echinomycin: low doses), drugs washed away. The procedure: FIG. 2. HIF addiction of CSC. a. Selective ablation of lymphoma CFU by echinomycin. The cultured lymphoma cells were treated with given doses of pharmacologically effective drugs in medium for 24 hours. After washing away the drugs, the cells were cultured in 1% methylcellulose-containing medium, and the colony number was counted after 6 to 7 days. Data shown are means and SD of triplicates and have been confirmed by 3 independent experiments. b. A reporter system for HIF activity in the TGB lymphoma. Diagram of lentiviral construct for HIF activity is shown on the top. Pause, a sequence fragment to eliminate the effect of lentiviral promoter; HRE, Hypoxia response element (SEQ ID NO: 20); TATA, TATA sequence (TATATAAT) (top). Lower left, validation of the reporter. HEK293 cells were transiently transfected with cDNA encoding mutant HIF1α (P402A/P577A) or vector control in conjunction with either HRE-driven EGFP reporter, HRE mutant reporter (SEQ ID NO: 21). The cells were analyzed by flow cytometry to detect EGFP expression 36 hours after transduction. […] IC50 of echinomycin in the inhibition of HIF1α activity in lymphoma CSC. The lymphoma cells transfected with the HRE reporter system were cultured in the presence of different concentration of echinomycin for 12 hours, the % of c-Kit^+GFP^+ cells was normalized against the untreated group (1.13%, which was defined as 100%). […] Selectivity of HIF inhibitor for CFU of lymphoma CSC over the CFU from hematopoietic progenitor cells. c-Kit^+Sca-1^+ cells from either TGB or normal bone marrow were treated with given concentration of echinomycin overnight prior to plating in the medium containing 1% methylcellulose for CFU assay. The data shown were % of untreated controls, and were means+/−S.D. of triplicates. e. Therapeutic effect of a low dose of echinomycin. Cultured lymphoma cells (1×10^6/mouse) were injected i.p. into immune competent B10.BR mice. Fourteen days later, 10 μg/Kg/Injection of echimomycin was injected at a two-day interval for a total of 5 times. Control mice received vehicle only. The mice were observed daily for survival.
FIG. 6. HIF works in concert with Notch pathway to maintain CSC. a. Inhibition of colony-forming activity of CSC. The cultured lymphoma cells were treated with given doses of L685, 458 for 24 hours. After that, the cells were cultured in 1% methylcellulose-containing medium, and the colony number was counted after 6 to 7 days. Data shown are means+/−SD of triplicate samples and are representative of those of at least 3 independent experiments. b. Enhanced Notch activity in CSC, as indicated by the levels of Hes1 transcripts. The lymphoma cells from spleen with tumor in TGB transgenic mouse were sorted into c-kit^+Sca-1^+ or c-kit^−Sca-1^− fractions. The expressions of Hes1αnd mRNA in these two fractions were measured by real time PCR. c. Inhibition of Notch activity by 3 distinct HIF inhibitors. Cultured TGB lymphoma cells were stained with APC conjugated anti-c-Kit-antibody and enriched twice using anti-APC coated MACS beads according to manufacturer's protocol (Militenyi Biotec). The c-kit positive cells-enriched samples (60.4% c-Kit^+ cells) were treated with inhibitors of HIF for 16 hours. The mRNA from the treated cells were extracted for quantitation by real-time PCR. Data shown are means+/−SD of triplicates and represent those from at least 3 independent experiments. 2ME2, 2-methoxyestradiol; GA, geldamycin. d-g. […] A truncated Notch gene with potent dominant negative activity in inhibiting the expression of Notch target gene Hes. […] The right panel show dominant inhibition of Hes expression. After three consecutive transductions by either vector control or the dRdA1-4dOP mutant, the RNA were isolated and the transcripts of Hes measured by quantitative PCR. Data shown are means of triplicates and have been reproduced by two independent experiments. e. Notch I-C deltaRAM abrogates the c-Kit^+Sca-1^+ subset. […]

Test [2] has the same test system. The test is described as above. Format: cell-based, mouse. As to conditions: first and second rounds of sorted cells, 1000/well, drug 24 hours, colonies counted after 5 days.
A further test relates to TGB lymphoma. Briefly: In vivo tumorigenicity / therapy of transplanted TGB lymphoma in B10.BR mice (survival). As to conditions: 9×10^5 lymphoma cells i.p., 5 injections at two day interval from day 8; less efficacy than echinomycin (FIG. 12b). The procedure: FIG. 2. HIF addiction of CSC. a. Selective ablation of lymphoma CFU by echinomycin. The cultured lymphoma cells were treated with given doses of pharmacologically effective drugs in medium for 24 hours. After washing away the drugs, the cells were cultured in 1% methylcellulose-containing medium, and the colony number was counted after 6 to 7 days. Data shown are means and SD of triplicates and have been confirmed by 3 independent experiments. b. A reporter system for HIF activity in the TGB lymphoma. Diagram of lentiviral construct for HIF activity is shown on the top. Pause, a sequence fragment to eliminate the effect of lentiviral promoter; HRE, Hypoxia response element (SEQ ID NO: 20); TATA, TATA sequence (TATATAAT) (top). Lower left, validation of the reporter. HEK293 cells were transiently transfected with cDNA encoding mutant HIF1α (P402A/P577A) or vector control in conjunction with either HRE-driven EGFP reporter, HRE mutant reporter (SEQ ID NO: 21). The cells were analyzed by flow cytometry to detect EGFP expression 36 hours after transduction. […] IC50 of echinomycin in the inhibition of HIF1α activity in lymphoma CSC. […]
Given numbers of total tumor cells or sorted subsets were injected into either immune competent B10.BR mice or RAG-2^−/−BALB/c mice. […] The therapeutic effects were analyzed by Kaplan Meier survival analysis.

[3] abbreviates: colonies counted after 6 to 7 days.

As for `OCC1OC(O)CC(O)C1O` (stereo not shown) [2-DG], the “effect on lymphoma CFU (colony number)” value in test [1] (setting [3]) was “no effect”.
As to `COc1cc2c(cc1O)CC[C@@H]1[C@@H]2CC[C@]2(C)[C@@H](O)CC[C@@H]12` [2-methoxyestradiol], the “inhibition of colony formation of sorted c-Kit+Sca-1+ tumor cells” value in test [2] is on record as “Inhibition”. In addition, in the test with TGB lymphoma, the “tumor initiation of CSC” value is recorded as “reduced”. Also, the “CFU of CSC” value in test [1] (less efficacy than echinomycin (FIG. 12a)) is reported as “reduced”.
`COc1ccc2c(c1)c(C1=C(c3c[nH]c4ccccc34)C(=O)NC1=O)cn2CCCN(C)C` [Gö6983]: the “effect on lymphoma CFU (colony number)” value in test [1] (setting [3]) was “no effect”.
On the same count and under the same terms, the result for `O=S(=O)(NCCNC/C=C/c1ccc(Br)cc1)c1cccc2cnccc12` [H89] reads “no effect”.
As to `CC(C)C[C@H](NC(=O)[C@H](Cc1ccccc1)C[C@@H](O)[C@H](Cc1ccccc1)NC(=O)OC(C)(C)C)C(=O)N[C@@H](Cc1ccccc1)C(N)=O` [L-685, 458], in test [1] (given doses for 24 hours, colonies counted after 6 to 7 days), the “colony forming activity of lymphoma CSC” value is “potently blocked”.
As to `O=c1cc(N2CCOCC2)oc2c(-c3ccccc3)cccc12` [Ly294002], in test [1] (setting [3]), the “effect on lymphoma CFU (colony number)” value was “no effect”.
Consider `COc1cccc(-c2cc(=O)c3ccccc3o2)c1N` [PD98059], for which the “effect on lymphoma CFU (colony number)” value in test [1] (setting [3]) is “no effect”.
Same read-out and setting: next, `S=C(S)N1CCCC1` [PDTC]: “no effect”; `CO[C@H]1C[C@@H]2CC[C@@H](C)[C@@](O)(O2)C(=O)C(=O)N2CCCC[C@H]2C(=O)O[C@H]([C@H](C)C[C@@H]2CC[C@@H](O)[C@H](OC)C2)CC(=O)[C@H](C)/C=C(\C)[C@@H](O)[C@@H](OC)C(=O)[C@H](C)C[C@H](C)/C=C/C=C/C=C/1C` [Rapamycin]: “no effect”; `C[S+]([O-])c1ccc(-c2nc(-c3ccncc3)c(-c3ccc(F)cc3)[nH]2)cc1` (stereo not shown) [SB203580]: “no effect”.
Take `Cn1cc(C2=C(c3ccc(Cl)cc3Cl)C(=O)NC2=O)c2ccccc21` [SB216763]: the “effect on lymphoma CFU (colony number)” value in test [1] (setting [3]) is on record as “no effect”.
